Measurements from patent publication US20250197387A1, “BCL-XL DEGRADERS AND USES THEREOF” (Kymera Therapeutics, Inc., priority 2021, published 2025).

Target: T1, BCL-XL (Homo sapiens, UniProt Q07817)
T1 construct: endogenous in cells; host or cells: MOLT-4
Assay: BCL-XL degradation assay, western blot in MOLT-4 cells, 16 h
Assay type: cell-based
Settings: western blot, MOLT-4 cells, 16 h; for Dmax: read-out: Bcl-xL WB in MOLT-4 degradation 16 h: Average Dmax %; for DC50: read-out: Bcl-xL WB in MOLT-4 degradation 16 h: Mean external-Abs DC50
Method: Compounds treatment: compounds were reconstituted in DMSO to make a stock concentration of 10 mM. MOLT-4 cells were maintained in RPMI-1640+10% FBS+1% Penicillin-Streptomycin. Cells were seeded into 6-well plates in 2 mL at the seeding density of 2e6 cells/mL. Compounds were added to the cells to a final concentration ranging 0.02-10 μM. After 16 hr incubation at 37° C., in a CO2 incubator, cells were collected in an Eppendorf tube and centrifuged at 200×g for 5 minutes, the supernatant removed and pellets washed with ice-cold PBS, centrifuged and supernatant removed again. Then. 50 μl of pre-chilled RIPA lysis buffer (Boston BioProducts. BP-115D) with protease and phosphatase inhibitors (Roche Applied Science. #04906837001 and #04693116001) was added into cell pellet to lyze the cells for 20 minutes under 4° C. Cell lysates were spin at 13000 rpm for 10 minutes. Supernatants were collected and protein concentration was measured by BCA assay kit (Solarbio. PC0020-500) following the manufacturer's protocol. Samples' final protein concentration was adjusted to 3.75 μg/uL with the RIPA lysis buffer based on BCA assay results and 4× loading buffer (Invitrogen. NP0007) was added into the samples and samples were heated to 85° C., for 10 min and then let cool at RT. Samples were centrifuged at 13000 rpm for 10 min and then loaded into a 26-well NuPAGER. Novex 4-12% Bis-Tris Midi Gel (Invitrogen. WG1403BOX) and run in NuPAGER MOPS SDS Running Buffer (Invitrogen. NP0001) for 180 minutes at 70 V into a XCell4 SureLock™ Midi-Cell Runner (Invitrogen. WR0100). Gel were transferred using the Invitrogen iBlot gel transfer device (Invitrogen. IB21001) and the nitrocellulose transfer stacks (Invitrogen, IB23001) with Program PO for 9 minutes. The membrane was then blocked with 5% bovin serum albumin for 1 hr at RT, then incubated with primary antibodies diluted in blocking buffer (LI-COR. 927-60001) and shake at 4° C., overnight. The primary antibodies were anti-BCL-xL antibody (CST. 2762:1:1000), anti-beta-actin (CST. 3700; 1:5000) and anti-GAPDH (CST. 97166:1:5000). Membranes were then washed three times with PBST for 15 minutes at RT. Secondary antibodies IR-Dye 680 CW Goat anti Mouse IgG (LI-COR. 926-68070) and IR-Dye 800 CW Goat anti Rabbit IgG (LI-COR. 926-32211) were diluted at a ratio of 1:10000 into PBST and membranes incubated for 1 hour at RT. Membranes were then washed three times with PBST for 15 minutes at RT. The western blot images were obtained using Odyssey Imaging System and quantified using Image Studio Lite Ver 5.2 software.
The letter codes for BCL-XL DC50 include: A (<0.01 μM); B (0.01-0.1 μM); C (>[…]); D (>0.5-1.0 μM); and E (>1.0 μM). The letter codes for Dmax % include A (>75%); B (50 to 75%); C (<50%).

T1 sequence (Q07817 whole entry): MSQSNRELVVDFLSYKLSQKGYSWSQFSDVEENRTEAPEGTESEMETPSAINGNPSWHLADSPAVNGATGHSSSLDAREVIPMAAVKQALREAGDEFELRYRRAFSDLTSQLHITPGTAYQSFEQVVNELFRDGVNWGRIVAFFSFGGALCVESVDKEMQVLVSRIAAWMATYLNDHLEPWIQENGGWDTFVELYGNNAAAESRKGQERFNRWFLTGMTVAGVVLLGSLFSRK

Cc1ncsc1-c1ccc(CNC(=O)[C@@H]2C[C@@H](O)CN2C(=O)[C@@H](NC(=O)CCOCCOCCOCC#Cc2ccc(OCCCc3sc(N4CCc5cccc(C(=O)Nc6nc7ccccc7s6)c5C4)nc3C(=O)O)cc2)C(C)(C)C)cc1 [I-385]
Dmax: > 75%
DC50: 10 to 100 nM

Cc1ncsc1-c1ccc([C@H](C)NC(=O)[C@@H]2C[C@@H](O)CN2C(=O)[C@@H](NC(=O)CCCN(C)C(=O)CCCCCc2ccc(N3CCc4cccc(C(=O)Nc5nc6ccccc6s5)c4C3)nc2C(=O)O)C(C)(C)C)cc1 [I-36, 6-(8-(benzo[d]thiazol-2-ylcarbamoyl)-3,4-dihydroisoquinolin-2 (1H)-yl)-3-(6-((4-(((S)-1-((2S,4R)-4-hydroxy-2-(((S)-1-(4-(4-methylthiazol-5-yl)phenyl)ethyl)carbamoyl)pyrrolidin-1-yl)-3,3-dimethyl-1-oxobutan-2-yl)amino)-4-oxobutyl)(methyl)amino)-6-oxohexyl)picolinic acid]
Dmax: < 50%
DC50: > 1000 nM

Cc1ncsc1-c1ccc([C@H](C)NC(=O)[C@@H]2C[C@@H](O)CN2C(=O)[C@@H](NC(=O)CCCCCCCC(=O)N(C)CCCc2cccc(F)c2OCCCc2sc(N3CCc4cccc(C(=O)Nc5nc6ccccc6s5)c4C3)nc2C(=O)O)C(C)(C)C)cc1 [I-11]
Dmax: > 75%
DC50: 100 to 500 nM

Cc1ncsc1-c1ccc(CNC(=O)[C@@H]2C[C@@H](O)CN2C(=O)[C@@H](NC(=O)C2(F)CC2)C(C)(C)C)c(O[C@H]2CC[C@H](C(=O)N3CCN(CC[C@H](CSc4ccccc4)Nc4ccc(S(=O)(=O)NC(=O)c5ccc(N6CCN(CC7=C(c8ccc(Cl)cc8)CCC(C)(C)C7)CC6)cc5)cc4S(=O)(=O)C(F)(F)F)CC3)CC2)c1 [I-89]
Dmax: < 50%
DC50: > 1000 nM

Cc1ncsc1-c1ccc(CNC(=O)[C@@H]2C[C@@H](O)CN2C(=O)[C@@H](NC(=O)C2(F)CC2)C(C)(C)C)c(OCCCCCC(=O)N(C)CCCc2cccc(F)c2OCCCc2sc(N3CCc4cccc(C(=O)Nc5nc6ccccc6s5)c4C3)nc2C(=O)O)c1 [I-13]
Dmax: > 75%
DC50: 100 to 500 nM

Cc1cc(N(CCN(C)C(=O)CCCCCC(=O)N[C@H](C(=O)N2C[C@H](O)C[C@H]2C(=O)N[C@@H](C)c2ccc(-c3scnc3C)cc2)C(C)(C)C)c2ccc(-c3cnn(CC4CCCCC4)c3C)c(C(=O)O)n2)nnc1Nc1nc2ccccc2s1 [I-100]
Dmax: 50 to 75%
DC50: 100 to 500 nM

Cc1ncsc1-c1ccc(CNC(=O)[C@@H]2C[C@@H](O)CN2C(=O)[C@@H](NC(=O)C2(F)CC2)C(C)(C)C)c(O[C@H]2CC[C@@H](N3CCN(CC[C@H](CSc4ccccc4)Nc4ccc(S(=O)(=O)NC(=O)c5ccc(N6CCN(CC7=C(c8ccc(Cl)cc8)CCC(C)(C)C7)CC6)cc5)cc4S(=O)(=O)C(F)(F)F)CC3)CC2)c1 (single isomer, unassigned) [I-115]
Dmax: < 50%
DC50: > 1000 nM

Cc1ncsc1-c1ccc([C@H](C)NC(=O)[C@@H]2C[C@@H](O)CN2C(=O)[C@@H](NC(=O)C[C@H]2CC[C@H](C(=O)N3CCN(CC[C@H](CSc4ccccc4)Nc4ccc(S(=O)(=O)NC(=O)c5ccc(N6CCN(CC7=C(c8ccc(Cl)cc8)CCC(C)(C)C7)CC6)cc5)cc4S(=O)(=O)C(F)(F)F)CC3)CC2)C(C)(C)C)cc1 [I-390]
Dmax: > 75%
DC50: 10 to 100 nM

Cc1ncsc1-c1ccc(CNC(=O)[C@@H]2C[C@@H](O)CN2C(=O)[C@@H](NC(=O)C2(F)CC2)C(C)(C)C)c(OCCCCCC(=O)N(C)CC#Cc2cccc(F)c2OCCCc2sc(N3CCc4cccc(C(=O)Nc5nc6ccccc6s5)c4C3)nc2C(=O)O)c1 [I-19]
Dmax: < 50%
DC50: > 1000 nM

Cc1ncsc1-c1ccc(CNC(=O)[C@@H]2C[C@@H](O)CN2C(=O)[C@@H](NC(=O)C2(F)CC2)C(C)(C)C)c(O[C@H]2CC[C@H](N3CCN(CC[C@H](CSc4ccccc4)Nc4ccc(S(=O)(=O)NC(=O)c5ccc(N6CCN(CC7=C(c8ccc(Cl)cc8)CCC(C)(C)C7)CC6)cc5)cc4S(=O)(=O)C(F)(F)F)CC3)CC2)c1 (single isomer, unassigned) [I-114]
Dmax: < 50%
DC50: > 1000 nM

Cc1ncsc1-c1ccc([C@H](C)NC(=O)[C@@H]2C[C@@H](O)CN2C(=O)[C@@H](NC(=O)CCc2cccc(F)c2OCCCc2sc(N3CCc4cccc(C(=O)Nc5nc6ccccc6s5)c4C3)nc2C(=O)O)C(C)(C)C)cc1 [I-30]
Dmax: < 50%
DC50: > 1000 nM

Cc1ncsc1-c1ccc([C@H](C)NC(=O)[C@@H]2C[C@@H](O)CN2C(=O)[C@@H](NC(=O)CCCNC(=O)CCC2(Cn3ncc(-c4ccc(N5CCc6cccc(C(=O)Nc7nc8ccccc8s7)c6C5)nc4C(=O)O)c3C)CCCCC2)C(C)(C)C)cc1 [I-129]
Dmax: > 75%
DC50: 100 to 500 nM

Cc1ncsc1-c1ccc(CNC(=O)[C@@H]2C[C@@H](O)CN2C(=O)[C@@H](NC(=O)C2(F)CC2)C(C)(C)C)c(OCCCCCCCC(=O)N(C)CCCc2cccc(F)c2OCCCc2sc(N3CCc4cccc(C(=O)Nc5nc6ccccc6s5)c4C3)nc2C(=O)O)c1 [I-14]
Dmax: > 75%
DC50: 100 to 500 nM

Cc1ncsc1-c1ccc(CNC(=O)[C@@H]2C[C@@H](O)CN2C(=O)[C@@H](NC(=O)C2(F)CC2)C(C)(C)C)c(O[C@H]2C[C@H](C(=O)N3CCN(CC[C@H](CSc4ccccc4)Nc4ccc(S(=O)(=O)NC(=O)c5ccc(N6CCN(CC7=C(c8ccc(Cl)cc8)CCC(C)(C)C7)CC6)cc5)cc4S(=O)(=O)C(F)(F)F)CC3)C2)c1 [I-91]
Dmax: < 50%
DC50: > 1000 nM

Cc1ncsc1-c1ccc([C@H](C)NC(=O)[C@@H]2C[C@@H](O)CN2C(=O)[C@@H](NC(=O)N2CC3(CCC(C(=O)N4CCN(CC[C@H](CSc5ccccc5)Nc5ccc(S(=O)(=O)NC(=O)c6ccc(N7CCN(CC8=C(c9ccc(Cl)cc9)CCC(C)(C)C8)CC7)cc6)cc5S(=O)(=O)C(F)(F)F)CC4)CC3)C2)C(C)(C)C)cc1 [I-125]
Dmax: < 50%
DC50: > 1000 nM

Cc1ncsc1-c1ccc([C@H](C)NC(=O)[C@@H]2C[C@@H](O)CN2C(=O)[C@@H](NC(=O)CCCC(=O)N(C)CCN(C)c2cc3c(c(C(=O)Nc4nc5ccccc5s4)c2)CN(c2ccc(-c4cnn(CC5CCCCC5)c4C)c(C(=O)O)n2)CC3)C(C)(C)C)cc1 [I-110]
Dmax: < 50%
DC50: > 1000 nM

Cc1cc(N(CCN(C)C(=O)CCCOc2cc(-c3scnc3C)ccc2CNC(=O)[C@@H]2C[C@@H](O)CN2C(=O)[C@@H](NC(=O)C2(F)CC2)C(C)(C)C)c2ccc(-c3cnn(CC4CCCCC4)c3C)c(C(=O)O)n2)nnc1Nc1nc2ccccc2s1 [I-102]
Dmax: 50 to 75%
DC50: > 1000 nM

Cc1ncsc1-c1ccc([C@H](C)NC(=O)[C@@H]2C[C@@H](O)CN2C(=O)[C@@H](NC(=O)CCCCCC(=O)N(C)CC#Cc2ccc(OCCCc3sc(N4CCc5cccc(C(=O)Nc6nc7ccccc7s6)c5C4)nc3C(=O)O)c(F)c2)C(C)(C)C)cc1 [I-3]
Dmax: > 75%
DC50: 10 to 100 nM

Cc1ncsc1-c1ccc([C@H](C)NC(=O)[C@@H]2C[C@@H](O)CN2C(=O)[C@@H](NC(=O)CCCCCS(=O)(=O)NC(=O)c2cccc(N3CCc4cccc(C(=O)Nc5nc6ccccc6s5)c4C3)n2)C(C)(C)C)cc1 [I-119]
Dmax: < 50%
DC50: > 1000 nM

Cc1ncsc1-c1ccc([C@H](C)NC(=O)[C@@H]2C[C@@H](O)CN2C(=O)[C@@H](NC(=O)C2(F)CC2)C(C)(C)C)c(OCC(=O)N2CCN(CC[C@H](CSc3ccccc3)Nc3ccc(S(=O)(=O)NC(=O)c4ccc(N5CCN(CC6=C(c7ccc(Cl)cc7)CCC(C)(C)C6)CC5)cc4)cc3S(=O)(=O)C(F)(F)F)CC2)c1 [I-112]
Dmax: 50 to 75%
DC50: 500 to 1000 nM
